Tests used:
[1] = Stability and size of micro-dispersions in distilled water; format: physicochemical; settings: dispersed in water without γ-PGA
Experimental: The particle size of the redispersed solutions of γ-PGA/Ptx and γ-PGA/Imq was measured using Electrophoretic Light Scattering-ELS Z (Otsuka Electronics, Osaka, Japan). The stability of the dispersion was assessed by observing the samples for aggregation and phase separation after storing the sample at 4° C. for 1 week after dispersion in distilled water. The morphology of theses micro-dispersions were observed through FE-SEM (JSM-7000F, JEOL Ltd. Japan) and FE-TEM (JEM-2100F HR, JEOL Ltd. Japan). For the SEM sample preparation, the lyophilized and redispersed suspension was deposited on a silicon wafer plate and vacuum-dried to remove water, followed by platinum coating using a Technics Hummer II sputter coater at 30 mA for 90 s. For TEM sample preparation, a drop (2 μL) of redispersed suspension was placed onto a formvar/carbon coated copper grid, followed by vacuum-drying to evaporate water.
Distinct monodisperse peaks for γ-PGA/Imq and γ-PGA/Ptx/Imq were observed, indicating uniform size distribution (FIG. 3). In case of γ-PGA/Ptx, two peaks were observed, which might be due to a high aspect ratio of the paclitaxel crystal.

[2] = In-vitro viability assay (MTS); format: cell-based; settings: mouse, bone marrow derived dendritic cells (BMDCs), after 48 h, normalized to untreated cells, read-out: cell viability / proliferation of BMDCs
Experimental: BMDCs were isolated from mouse bone marrow as reported previously. MTS assay for analysis of mitochondrial activity was used as a measure of cell viability. 1×10^4 cells in 100 μL media were seeded per well in a 96 well plate (Corning Costar, Cambridge, Mass., USA). 100 μl of sample dispersion was added to cell culture media and incubated for 24 h and 48 h at 37° C. and 5% CO2. After the incubation, 20 μL of MTS solution-Cell Titer 96 Aqueous One Solution kit (Promega, Madison, Wis., USA) was added to each well and incubated for 2 h. The absorbance of the samples was measured at 490 nm (VersaMax, Molecular Devices, Sunnyvale, Calif., USA) and normalized with respect to absorbance of untreated cells.

Row | SMILES | dispersion state in water without γ-PGA [1] | viability at 48 h [2] [%]
1 | CC(C)Cn1cnc2c(N)nc3ccccc3c21 [imiquimod] | aggregation and precipitation | 250
2 | CC(=O)O[C@H]1C(=O)[C@@]2(C)[C@H]([C@H](OC(=O)c3ccccc3)[C@]3(O)C[C@H](OC(=O)[C@H](O)[C@@H](NC(=O)c4ccccc4)c4ccccc4)C(C)=C1C3(C)C)[C@]1(OC(C)=O)CO[C@@H]1C[C@@H]2O [paclitaxel] | aggregation and precipitation | 
